Laboratory results reported in PMC7278776, “Multidrug Resistance Modulation Activity of Silybin Derivatives and Their Anti-Inflammatory Potential” (Antioxidants, 2020).

Assays:
A2780/DOX = assay: Viability of A2780/DOX cells (resazurin); conditions: Homo sapiens, A2780, read-out: IC50 (µM), concentration necessary to halve cell viability
Method: To determine the NO production, the medium was mixed with Griess reagent (0.04 g/mL, prepared in deionized water) in a 1:1 ratio. After 15 min, absorbance was recorded at 540 nm. To determine cell viability, the resazurin solution (0.03 mg/mL in PBS) was added to the cells. After 2 h of incubation, fluorescence was recorded (560/590 nm, ex./em.).
A multidrug resistant ovarian sub-line resistant to doxorubicin (A2780/DOX, Sigma-Aldrich) was cultivated in DMEM medium with 10% FBS and 1 × antibiotic antimycotic solution. Every other passage, doxorubicin at the final concentration of 0.1 µM was added to the culture medium to maintain the resistance of the cell line. To perform experiments, the cells were seeded at 1 × 10^5 cell/mL into the wells of a 96-well plate and incubated for 24 h. Afterwards, the cells were washed with PBS and fresh DMEM medium with tested compounds at 10, 20 and 30 µM were added to each well, except for the control wells. Subsequently, the cells were exposed to increasing concentrations of doxorubicin (0.6–20 µM) for 72 h. After incubation, the resazurin assay was performed as described above. The IC50 of doxorubicin was calculated for both the control and the samples and the fold change was counted up. […] The fold change lower than 1 means an antagonistic effect. (1) FOLD CHANGE=IC50 value of DOX cells treated with chemotherapeutic /IC50 value of DOX cells treated with chemotherapeutic and compound

ABCD2 = ABCD2 mRNA expression (real-time PCR); format: cell-based, human; conditions: A2780/DOX
Method: (§1) The A2780/DOX cell line was seeded into 5 cm Petri dishes with DMEM medium at 1 × 10^5 cell/mL. […] After 48 h of treatment, the cells were washed with PBS and harvested using the standard trypsin-EDTA procedure. The harvested cells were centrifuged (3200× g; 10 min, 4 °C). The supernatant was discarded, and the pellets were washed with 1.5 mL of cooled PBS (5400× g; 10 min, 4 °C). The washing step was repeated with 1 mL of PBS and the cells were centrifuged again (10,000× g; 3 min, 4 °C). Afterwards, the pellets were resuspended in 1 mL of Trizol (Invitrogen, Carlsbad, CA, USA) and transferred into pre-cooled RNase-free microfuge tubes. The samples were stored at −80 °C.
(§2) A Quant-iT RiboGreen RNA Assay Kit (Invitrogen) was used to determine the RNA concentration using the Infinite M200 plate reader (Tecan, Männedor, Switzerland). The cDNA was prepared from 0.5 µg of total RNA using a RevertAid First Strand Synthesis cDNA Kit (MBI Fermentas, Vilnius, Lithuania). The amplification of the ubiquitin C gene fragment was used to determine the quality of cDNA.
(§3) The experiment was performed using the ViiA7 Real-Time polymerase chain reaction (PCR) System (Life Technologies, Camarillo, CA, USA) with a 384-well block. Before quantitative real-time PCR, the master mix was prepared by mixing 2 µL of 8 × diluted cDNA, 1.75 µL of RNase free water, 1 µL of 5 × HotFIREPol Probe quantitative PCR Mix Plus (Solis Biodyne, Tartu, Estonia) and 0.25 µL of specific 20 × TaqMan Gene Expression Assay (Life Technologies), giving 5 µL of final reaction volume. Cycling parameters were: initial hold at 50 °C for 2 min and denaturation at 95 °C for 10 min, followed by 45 cycles consisting of denaturation at 95 °C for 15 s and annealing/extension at 60 °C for 1 min. After each extension phase, the fluorescence values were acquired. Duplicate samples were used for measurement and samples with a standard deviation of duplicates > 1.0 cycle threshold (Ct) were re-analyzed. The real time PCR procedure was maintained according to MIQE (Minimum information for publication of quantitative real-time PCR experiments) guidelines. The software REST 2009 (Qiagen, Hilden, Germany) served to compare relative transcript levels of genes in the cell line.

ABCD3 = ABCD3 mRNA expression (real-time PCR); format: cell-based, human; conditions: A2780/DOX
Method: (§4) The A2780/DOX cell line was seeded into 5 cm Petri dishes with DMEM medium at 1 × 10^5 cell/mL. After 24 h, the dishes were washed with PBS and new DMEM medium supplemented with doxorubicin (at concentration equal to IC25) and samples (10 µM) were added. After 48 h of treatment, the cells were washed with PBS and harvested using the standard trypsin-EDTA procedure. The harvested cells were centrifuged (3200× g; 10 min, 4 °C). The supernatant was discarded, and the pellets were washed with 1.5 mL of cooled PBS (5400× g; 10 min, 4 °C). The washing step was repeated with 1 mL of PBS and the cells were centrifuged again (10,000× g; 3 min, 4 °C). Afterwards, the pellets were resuspended in 1 mL of Trizol (Invitrogen, Carlsbad, CA, USA) and transferred into pre-cooled RNase-free microfuge tubes. The samples were stored at −80 °C.
as §2, §3

ABCG4 = ABCG4 mRNA expression (real-time PCR); format: cell-based, human; conditions: for ABCG4 Expression Difference / ABCG4 Treated vs. Untreated: A2780/DOX
Method: as §1, §2, §3

acetylcholinesterase = acetylcholinesterase (Homo sapiens, UniProt P22303); assay: Acetylcholinesterase activity, Ellman colorimetric method; format: biochemical
Method: The activity of acetylcholinesterase was measured by the Ellman colorimetric method. A stock solution of acetylcholinesterase was prepared in PBS (0.057 U/mL), 100× diluted and stored in a freezer (−20 °C). Further, the solution of DTNB (5,5′-dithio-bis-2-nitrobenzoic acid, 50 µM) and ATC ([…], 50 µM) was prepared. […] Afterwards, 10 µL of DNTB and ATC solution was added, and the reaction was launched. After the addition of reagents, the absorbance at 412 nm was recorded for 10 min every minute.

ABCA5 = ABCA5 mRNA expression (real-time PCR); format: cell-based, human; conditions: A2780/DOX
Method: as §4, §2, §3

ABCB10 = ABCB10 mRNA expression (real-time PCR); format: cell-based, human; conditions: A2780/DOX
Method: as §1, §2, §3

ABCG2 (BCRP) = assay: ABCG2 mRNA expression (real-time PCR); format: cell-based, human
Method: as §1, §2, §3

[1] = 10 µM combined with doxorubicin at IC25, 48 h
[2] = 10 µM, 48 h, without doxorubicin
[3] = A2780/DOX, 10 µM combined with doxorubicin at IC25, 48 h
[4] = A2780/DOX, 10 µM, 48 h, without doxorubicin

Sequence of acetylcholinesterase (P22303 32-614, species assumed): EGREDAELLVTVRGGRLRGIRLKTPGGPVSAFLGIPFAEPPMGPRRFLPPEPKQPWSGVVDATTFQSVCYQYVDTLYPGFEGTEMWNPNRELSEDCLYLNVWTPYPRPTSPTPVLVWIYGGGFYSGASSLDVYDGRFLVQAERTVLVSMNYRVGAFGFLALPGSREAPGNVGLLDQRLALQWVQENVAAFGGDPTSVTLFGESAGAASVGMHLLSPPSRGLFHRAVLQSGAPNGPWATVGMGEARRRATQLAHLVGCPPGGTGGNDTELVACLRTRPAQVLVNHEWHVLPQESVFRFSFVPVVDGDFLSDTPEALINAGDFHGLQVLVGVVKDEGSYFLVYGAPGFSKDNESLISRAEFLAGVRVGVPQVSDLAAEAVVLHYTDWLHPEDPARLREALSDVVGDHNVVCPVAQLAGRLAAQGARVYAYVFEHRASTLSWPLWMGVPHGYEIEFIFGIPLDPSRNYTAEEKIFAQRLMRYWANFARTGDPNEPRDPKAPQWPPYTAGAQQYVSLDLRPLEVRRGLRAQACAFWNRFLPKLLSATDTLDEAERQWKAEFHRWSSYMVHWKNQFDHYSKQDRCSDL

Structure (SMILES)	IC50 (A2780/DOX) [µM]	ABCD2 Expression Difference (ABCD2; [1])	ABCD2 Treated vs. Untreated (ABCD2; [1])	ABCD2 Expression Difference (ABCD2; [2])	ABCD3 Expression Difference (ABCD3; [1])	downregulation of ABCG4 expression (ABCG4; [2]) [%]	ABCG4 Expression Difference (ABCG4; [1])	ABCG4 Expression Difference (ABCG4; [2])	ABCG4 Treated vs. Untreated (ABCG4; [2])	IC50 (acetylcholinesterase) [µM]	ABCA5 Expression Difference (ABCA5; [1])	ABCB10 Expression Difference (ABCB10; [1])	ABCB10 Expression Difference (ABCB10; [2])	ABCG2 Expression Difference (ABCG2 (BCRP); [3])	ABCD3 Expression Difference (ABCD3; [2])	ABCG2 Expression Difference (ABCG2 (BCRP); [4])	ABCD2 Treated vs. Untreated (ABCD2; [2])	ABCA5 Expression Difference (ABCA5; [2])	further results
COc1cc([C@H]2Oc3cc(-c4oc5cc(O)cc(O)c5c(=O)c4O)ccc3O[C@@H]2CO)ccc1O [Dehydrosilybin A, 2,3-dehydrosilybin A]	74.4 ± 4.8	0.698	DOWN	1.205	1.043	5	1.992	0.950	DOWN	6.9 ± 0.6	1.223	1.020	1.236	1.259	–	–	–	–	–
COc1cc(C2Oc3cc(-c4oc5cc(O)cc(O)c5c(=O)c4O)ccc3OC2CO)ccc1O (centres unmarked) [Dehydrosilybin AB, 2,3-dehydrosilybin]	33.6 ± 0.4	0.712	DOWN	1.199	1.288	–	2.008	1.162	–	2.7 ± 0.3	1.254	1.119	1.589	1.698	1.545	1.921	–	–	inhibition of acetylcholinesterase activity relative to single isomers (acetylcholinesterase): 2.5 ×
COc1cc([C@@H]2Oc3cc(-c4oc5cc(O)cc(O)c5c(=O)c4O)ccc3O[C@H]2CO)ccc1O [Dehydrosilybin B, 2,3-dehydrosilybin B]	27.1 ± 0.4	0.733	DOWN	0.860	1.347	26	2.860	0.736	DOWN	6.8 ± 0.8	1.707	1.221	1.186	1.948	–	–	DOWN	–	–
COc1cc([C@H]2Oc3cc([C@H]4Oc5cc(O)cc(O)c5C(=O)[C@@H]4O)ccc3O[C@@H]2CO)ccc1O [Silybin A, silybin A]	252 ± 7.6	0.426	DOWN	1.063	1.637	–	4.751	1.185	–	181 ± 6.1	2.427	1.060	1.136	2.415	–	–	–	–	–
COc1cc(C2Oc3cc([C@H]4Oc5cc(O)cc(O)c5C(=O)[C@@H]4O)ccc3OC2CO)ccc1O (some centres unmarked) [Silybin AB, silybin]	197 ± 4	0.494	DOWN	1.566	1.560	–	5.289	1.846	–	22.6 ± 1.4	2.122	1.069	2.204	2.373	2.181	–	–	1.933	–
COc1cc([C@@H]2Oc3cc([C@H]4Oc5cc(O)cc(O)c5C(=O)[C@@H]4O)ccc3O[C@H]2CO)ccc1O [Silybin B, silybin B]	194 ± 8.8	0.448	DOWN	0.322	–	–	4.110	0.366	DOWN	83.7 ± 6.4	1.821	0.835	0.329	1.902	0.337	0.335	DOWN	0.356	ABCD3 Treated vs. Untreated (ABCD3; [2]): DOWN; ABCA5 Treated vs. Untreated (ABCA5; [2]): DOWN; ABCB10 Treated vs. Untreated (ABCB10; [1]): DOWN; ABCB10 Treated vs. Untreated (ABCB10; [2]): DOWN; downregulation of ABCG2 (BCRP) expression (ABCG2 (BCRP); [2]): 67%; ABCG2 Treated vs. Untreated (ABCG2 (BCRP); [4]): DOWN
